This note sets out measurements from patent US20150110723A1, “QUINAZOLINE DERIVATIVES, COMPOSITIONS, AND USES RELATED THERETO” (EMORY UNIVERSITY, priority 2012, published 2015).

A word on the IC50: it is the concentration that gives 50% inhibition.

In one assay the target is T1, Nox2 (Homo sapiens, UniProt P04839).
T1 construct: superoxide originates from the endogenous Nox2 enzyme system; endogenous in cells; host or cells: isolated human neutrophils, PMA-stimulated
T1 sequence (P04839 2-570 limits assumed): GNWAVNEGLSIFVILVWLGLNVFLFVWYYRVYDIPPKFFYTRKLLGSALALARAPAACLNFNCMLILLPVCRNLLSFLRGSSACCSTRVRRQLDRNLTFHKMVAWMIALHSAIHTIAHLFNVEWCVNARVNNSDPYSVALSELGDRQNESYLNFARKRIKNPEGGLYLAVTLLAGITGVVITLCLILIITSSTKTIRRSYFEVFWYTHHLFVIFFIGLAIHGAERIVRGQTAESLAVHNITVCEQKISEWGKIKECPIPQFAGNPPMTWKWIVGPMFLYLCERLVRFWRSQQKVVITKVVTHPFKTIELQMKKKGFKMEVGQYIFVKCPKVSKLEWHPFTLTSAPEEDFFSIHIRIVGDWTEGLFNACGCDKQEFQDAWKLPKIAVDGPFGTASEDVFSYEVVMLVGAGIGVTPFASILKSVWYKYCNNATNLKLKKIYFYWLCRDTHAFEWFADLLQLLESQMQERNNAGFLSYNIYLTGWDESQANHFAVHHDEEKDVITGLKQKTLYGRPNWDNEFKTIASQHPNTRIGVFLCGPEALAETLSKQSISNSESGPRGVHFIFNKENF
T1 sequence (P13498 2-195 partner limits assumed): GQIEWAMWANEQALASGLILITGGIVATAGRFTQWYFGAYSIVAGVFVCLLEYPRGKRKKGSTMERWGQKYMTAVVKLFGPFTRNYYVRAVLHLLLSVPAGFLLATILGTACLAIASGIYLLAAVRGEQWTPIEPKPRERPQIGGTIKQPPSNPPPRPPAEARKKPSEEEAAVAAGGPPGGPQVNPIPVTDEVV
Briefly: Cytochrome c reduction assay for superoxide in activated human neutrophils. Conditions: for IC50: isolated human neutrophils, PMA-activated, absorbance at 550 nm. The class given is cell-based. The protocol:
Isolated human neutrophils represent a system in which superoxide originates from the endogenous Nox2 enzyme system, and can be measured using cytochrome c reduction that is inhibitable by added superoxide dismutase. In Table 3, Nox2 activity in isolated human neutrophils was assayed using cytochrome c reduction.
Isolated human neutrophils, which contain large amounts of Nox2 enzyme, are mixed with superoxide detector cytochrome c. Phorbol 12-myristate 13-acetate (PMA) is added at 1 μM final to stimulate Nox2 activation resulting superoxide production; absorbance at 550 nm is monitored.

A further assay concerns the target T2, human Myeloperoxidase (Homo sapiens, UniProt P05164).
T2 sequence (P05164 49-745): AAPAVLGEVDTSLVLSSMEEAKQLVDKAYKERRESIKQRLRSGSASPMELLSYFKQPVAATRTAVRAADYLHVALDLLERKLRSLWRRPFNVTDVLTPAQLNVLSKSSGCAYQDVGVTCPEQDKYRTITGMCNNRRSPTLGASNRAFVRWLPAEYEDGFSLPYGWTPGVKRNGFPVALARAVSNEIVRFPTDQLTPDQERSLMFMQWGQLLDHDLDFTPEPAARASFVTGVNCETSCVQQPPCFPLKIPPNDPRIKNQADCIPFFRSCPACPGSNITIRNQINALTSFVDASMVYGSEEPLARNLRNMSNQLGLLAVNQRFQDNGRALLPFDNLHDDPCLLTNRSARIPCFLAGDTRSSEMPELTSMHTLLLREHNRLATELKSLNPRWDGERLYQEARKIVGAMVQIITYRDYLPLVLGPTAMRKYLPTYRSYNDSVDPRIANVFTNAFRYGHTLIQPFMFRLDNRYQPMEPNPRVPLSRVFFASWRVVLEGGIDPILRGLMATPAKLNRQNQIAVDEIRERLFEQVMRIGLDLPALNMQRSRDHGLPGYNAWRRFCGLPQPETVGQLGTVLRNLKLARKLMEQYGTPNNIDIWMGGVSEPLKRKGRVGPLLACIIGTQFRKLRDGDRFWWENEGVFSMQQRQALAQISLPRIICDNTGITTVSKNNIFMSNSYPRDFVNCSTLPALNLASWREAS
The experiment in a line: Amplex Red assay of purified MPO activity. Type of assay: biochemical. The conditions noted are these: isolated purified human MPO, hydrogen peroxide as substrate. As to the method:
In Table 2, isolated, purified human Myeloperoxidase was used in an enzyme assay system including hydrogen peroxide as substrate and Amplex Red to measure MPO enzymatic activity.
Purified human MPO is mixed with the detector molecule Amplex Red (10-acetyl-3,7-dihydroxyphenoxazine) which increases fluorescence at 590 nm) Hydrogen peroxide is added to initiate the reaction and fluorescence is monitored.

The test system of another assay is Nox2/MPO System. Briefly: L-012 cell-free assay of Nox2/MPO activity (human neutrophil plasma membranes plus recombinant p47phox, p67phox, Rac1Q61L). Type of assay: biochemical. Conditions: for IC50: read-out: L-012 Assay IC50 μM ± SEM; for Inhibition of ROS from neutrophil membranes assayed by L-012 (figure legend): cell-free L-012 assay, FIG. 1 / FIG. 2. As to the method:
In Table 1 a cell-free semi-recombinant system (consisting of isolated plasma membranes from human neutrophils as a source for Nox2-p22phox and MPO), supplemented with recombinant p47phox, p67phox and Rac1Q61L (activated Rac), expressed in and isolated from of E. coli. L-012 luminescence was used as a readout to monitor enzymatic activity that monitors the combined enzymatic activity of both the Nox2 system and MPO.
Plasma membranes were prepared from human neutrophils. […]. Membranes were stored at −80 C until use. Membranes are mixed with recombinant, purified cytosolic regulatory proteins (p67Np47 chimera, and constitutively active Rac1 mutant Q61) and FAD, along with varying concentrations of compound, and L-012, which luminesces when it reacts with ROS derived either from Nox2 or from MPO. The reaction is initiated by addition of NADPH and SDS (an artificial activatyor for Nox2). See Curnutte et al., (1987) J. Biol. Chem. 262: 6450-6452.

In another assay the test system is xanthine oxidase. Briefly: Xanthine/xanthine oxidase-L-012 control (interference) assay. Type of assay: biochemical. Conditions: L-012 luminescence, FIG. 1 / FIG. 2. As to the method: Two assays are used to rule out interference. In one assay, xanthine oxidase replaces the Nox2 and MPO enzymatic system as the source of ROS. See Ritsick et al. (2007) Free Radic Biol Med 43: 31-8. Xanthine was added to start the reaction and L012 luminescence was recorded. In a control for the luminol assay, exogenous H2O2 is supplied in place of the Nox expressing H2O2-generating cells or enzyme and luminol luminescence is recorded.

The mark [1] stands for this setting: cell-free semi-recombinant system, L-012 luminescence, does not distinguish Nox2 from MPO inhibition.

Take `CC(Sc1nc2ccccc2c(=O)n1CCCN(C)C)C(=O)Nc1nc(-c2cccc(Br)c2)cs1` (centres unmarked) [TG6-73]: the “Inhibition of superoxide production from Nox2 in intact human neutrophils (figure legend)” value at Nox2 (cytochrome c reduction, absorbance increase at 550 nm, FIG. 3) is “inhibits superoxide production”. This compound registered a half-maximal inhibitory concentration (IC50) on Nox2 of 2 µM. In turn, `O=c1c2ccccc2[nH]c(=S)n1CCc1cnc[nH]1` [LY1-27] showed a 50% inhibitory concentration (IC50) at human Myeloperoxidase of 1 µM. Take `CN(C)CCCCn1c(SCC(=O)Nc2nc(-c3cccc(Br)c3)cs2)nc2ccccc2c1=O` [AS195]: the IC50 against Nox2 was 1.5 µM. Turning to `O=c1c2cc(F)ccc2[nH]c(=S)n1CCc1cnc[nH]1` [LY1-73], the half-maximal inhibitory concentration (IC50) on human Myeloperoxidase was 1.5 µM. Regarding `O=c1c2ccccc2[nH]c(=S)n1CCc1ccccn1` [Compound 2zzz], in the assay on Nox2/MPO System (setting [1]), the half-maximal inhibitory concentration (IC50) came to 4 ± 1 µM. The compound `COCCCn1c(=S)[nH]c2ccccc2c1=O` [LY1-21] came in with a half-inhibitory concentration (IC50) on human Myeloperoxidase of 3 µM. Still for that read-out and setting: the result for `COc1cc2[nH]c(=S)n(CCCCN(C)C)c(=O)c2cc1OC` [AS2-30] reads 4 µM. For the compound `CCn1c(=S)[nH]c2ccc(F)cc2c1=O` [Compound 3k], in the assay on Nox2/MPO System (setting [1]), the IC50 was 0.7 ± 0.1 µM. For the compound `CCN(CC)CCn1c(=S)[nH]c2ccccc2c1=O` [TG6-27-2], the IC50 against human Myeloperoxidase worked out at 2 µM. The same measure, in the same setting: for `CN(C)CCCn1c(=S)[nH]c2ccc(F)cc2c1=O` [TG6-248] the value was 2 µM. Take `CCN(CC)CCCn1c(SCC(=O)Nc2nc(-c3ccc(Br)cc3)cs2)nc2ccccc2c1=O` [AS158A]: the IC50 at Nox2 is 0.6 µM. As for `CN(C)CCCn1c(=O)[nH]c2ccccc2c1=O` [Compound 2b], the “L-012 Assay IC50 μM ± SEM” value in the assay with Nox2/MPO System (setting [1]) is “N•I”. In the case of `CN1CCN(CCCn2c(=S)[nH]c3ccc(F)cc3c2=O)CC1` [LY1-107N], at human Myeloperoxidase, the IC50 came out at 1 µM.

At Nox2, `CN(C)CCCn1c(SCC(=O)Nc2nc(-c3ccc(Br)cc3)cs2)nc2ccccc2c1=O` [AS148A] had a half-inhibitory concentration (IC50) of 1 µM. In turn, `O=c1c2ccccc2[nH]c(=S)n1CCN1CCCC1` [TG6-52-2] registered an IC50 against human Myeloperoxidase of 1.5 µM. On to `CC(C)n1c(=S)[nH]c2cc(F)c(F)cc2c1=O` [Compound 3l], for which the IC50 in the assay on Nox2/MPO System (setting [1]) came to 0.7 ± 0.1 µM. On to `CN(C)CCCn1c(=S)[nH]c2cc(F)c(F)cc2c1=O` [TG6-250], for which the 50% inhibitory concentration (IC50) against human Myeloperoxidase was 1 µM. In the case of `COc1cc2[nH]c(=S)n(C(C)C)c(=O)c2cc1OC` [Compound 3m], the 50% inhibitory concentration (IC50) in the assay on Nox2/MPO System (setting [1]) came to 0.7 ± 0.1 µM. Consider `CN(C)CCCCn1c(SCC(=O)Nc2nc(-c3ccc(Br)cc3)cs2)nc2ccccc2c1=O` [AS158B], for which the “Effect on control assay with ROS generated from xanthine plus xanthine oxidase” value with xanthine oxidase was “does not affect control assay”. The concentration for half-maximal inhibition (IC50) at Nox2 turned out to be 3 µM. Moreover, the “Inhibition of ROS from neutrophil membranes assayed by L-012 (figure legend)” value in the assay with Nox2/MPO System is given as “inhibits ROS generation”. For the compound `CN(C)CCCn1c(=S)[nH]c2ccccc2c1=O` [Compound 2a], the IC50 in the assay with Nox2/MPO System (setting [1]) stood at 3.3 ± 0.3 µM.

Consider `CN(C)CCCn1c(=S)[nH]c2ccc(Cl)cc2c1=O` [TG6-44], for which, in the assay on xanthine oxidase, the “Effect on control assay with ROS generated from xanthine plus xanthine oxidase” value is recorded as “does not affect control assay”. Also, the values for the half-inhibitory concentration (IC50) at human Myeloperoxidase and in the assay with Nox2/MPO System (setting [1]) were 1 µM and 1.2 ± 0.1 µM, respectively. Moreover, in the assay on Nox2/MPO System, the “Inhibition of ROS from neutrophil membranes assayed by L-012 (figure legend)” value was “Inhibits ROS activity”. For the compound `CN(C)CCCn1c(=S)[nH]c2ccccc2c1=O` [TG6-17-2], the IC50 against human Myeloperoxidase came out at 1.5 µM.

With `COC(=O)c1ccc2c(=O)n(N)c(=S)[nH]c2c1` [AS261b], at human Myeloperoxidase, the IC50 stood at 1.5 µM.
